Here are results for 1 compound from ChEMBL document CHEMBL3832542, “DailyMed|setid=00f30ef0-e65c-4b41-ad1b-afaab9bcfc7d | CLONIDINE- clonidine patch, extended release|Lake Erie Medical DBA Quality Care Products LLC”.

The nature of data set [1]: Pharmacokinetic parameters for Clonidine evaluated following oral or intravenous administration of Clonidine to subjects. Particulars: human, in vivo.
Data set [2] can be described thus: Steady-state pharmacokinetic parameters for Clonidine evaluated following transdermal administration of 0.1, 0,2 and 0.3 mg doses of Clonidine to the upper outer arm for 7 days. Particulars: human, in vivo, topical or ocular.

For orientation: half-life means how long it takes for the measured level to halve. Low readings indicate fast loss, high ones slow loss. The bioavailability is the share of a dose that reaches the circulation, judged against a reference dose that is usually intravenous. Low readings indicate little systemic uptake, high ones much systemic uptake. In data set [1], `Clc1cccc(Cl)c1N=C1NCCN1` [CLONIDINE] gave a CL renal of 102 mL/min, a Vd of 197 L, a clearance of 177 mL/min and a half-life of 12 to 16 h. In data set [2], this compound had a bioavailability at 168 h of 60% and a half-life at 168 h of 24 h.
